In patent US8933011B2, “Treatment of preterm labor with toll-like receptor 9 antagonists” (The Provost, Fellows and Scholars of the College of the …, priority 2008, dated 2015):
“Also recorded” adds a separate entry of the source.

Target: T1, Toll-like Receptor 9 (Homo sapiens, UniProt Q9NR96)
T1 construct: endogenous in cells; host or cells: Namalwa cells
T1 sequence (Q9NR96 26-1032): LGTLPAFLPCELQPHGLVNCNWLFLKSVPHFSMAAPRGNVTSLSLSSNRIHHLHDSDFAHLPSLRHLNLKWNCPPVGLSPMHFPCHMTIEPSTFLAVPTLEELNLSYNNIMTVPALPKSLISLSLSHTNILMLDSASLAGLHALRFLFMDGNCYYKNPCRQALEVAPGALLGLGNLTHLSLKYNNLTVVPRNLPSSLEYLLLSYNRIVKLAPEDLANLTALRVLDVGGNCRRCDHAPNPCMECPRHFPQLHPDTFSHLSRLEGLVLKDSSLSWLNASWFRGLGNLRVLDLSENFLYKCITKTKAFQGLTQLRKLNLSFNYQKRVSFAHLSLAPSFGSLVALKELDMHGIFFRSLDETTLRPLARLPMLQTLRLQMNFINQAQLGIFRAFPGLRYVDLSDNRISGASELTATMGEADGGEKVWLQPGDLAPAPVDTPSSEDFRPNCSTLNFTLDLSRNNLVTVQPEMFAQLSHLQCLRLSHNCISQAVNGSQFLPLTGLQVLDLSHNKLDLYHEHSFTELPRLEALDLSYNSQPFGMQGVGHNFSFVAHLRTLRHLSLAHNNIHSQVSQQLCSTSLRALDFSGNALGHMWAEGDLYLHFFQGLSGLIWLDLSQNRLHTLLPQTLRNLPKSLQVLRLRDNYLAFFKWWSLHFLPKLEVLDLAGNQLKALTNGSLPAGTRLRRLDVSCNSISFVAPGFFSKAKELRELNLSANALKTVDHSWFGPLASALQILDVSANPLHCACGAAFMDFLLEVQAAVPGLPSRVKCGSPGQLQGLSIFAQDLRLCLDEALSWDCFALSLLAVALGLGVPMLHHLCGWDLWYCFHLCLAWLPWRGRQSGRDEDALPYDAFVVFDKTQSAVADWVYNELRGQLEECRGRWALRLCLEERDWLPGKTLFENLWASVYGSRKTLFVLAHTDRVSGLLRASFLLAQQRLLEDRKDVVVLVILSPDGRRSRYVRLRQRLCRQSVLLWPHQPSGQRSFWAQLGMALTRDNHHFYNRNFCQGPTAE
Test: Inhibition of fetal DNA induced I-kappa-B degradation in Namalwa cells by TLR9 inhibitors
Assay type: cell-based
Settings: Namalwa cells pre-treated at 75 μM, then fetal DNA 3.0 μg/ml
Protocol: Inhibition of Toll-like Receptor 9 was carried out using the Toll-like Receptor 9 antagonist cholorquine and a synthetic inhibitory oligodinucleotide (TTAGGG) which was obtained from InvivoGen. […] The recommended concentration from package inserts was to use a 10-100 microM concentration. […] The same fetal DNA (3.0 μg/ml) was then used to stimulate cells over time in minutes as described above.
Namalwa cells (2.0×10^7 cells/ml) were also incubated with synthetic inhibitory TLR-9 oligonucleotide (ODN+) at an 8:1 ratio of oligodinucleotide (ODN) to ligand. The package insert recommended a 1-10:1 ratio of inhibitory oligodinucleotide (ODN) to stimulatory oligodinucleotide (ODN). […] This was followed by stimulation with the same purchased fetal DNA at 3.0 μg/ml using the method described hereinbefore.
In FIGS. 5A and 6A Namalwa cells (2.0×10^7 cells/ml) were incubated with the inhibitory TLR-9 oligonucleotide (ODN+) in an 8:1 ratio of ODN to ligand. This was followed by stimulation with fetal DNA at a concentration of 3.0 μg/ml.
In FIGS. 5B and 6B, the TLR9 antagonist cholorquine was used to pre-treat Namalwa cells at 2.0×10^7 cells/ml at a concentration of 75 μM. Fetal DNA (3.0 microg/ml) was then used to stimulate cells over time in minutes.

CCN(CC)CCCC(C)Nc1ccnc2cc(Cl)ccc12 (centres unmarked) [chloroquine, N′-(7-chloroquinolin-4-yl)-N,N-diethyl-pentane-1,4-diamine]
inhibition of fetal DNA induced I-kappa-B degradation: can also inhibit this response; also recorded: Induction of I-kappa-B degradation was inhibited; also recorded: blocked the effect of fetal DNA on I-kappaB degradation | inhibition of fetal DNA induced I-kappa-B degradation (listed as Chloroquine): blocked I-kappa-B degradation; also recorded: blocked 1-kappa-B degradation
